The test system of experiment [1] is Plasma. Put plainly: Anticoagulant activity in rat plasma assessed as concentration causing 1.5 times prolongation of prothrombin time. Format: functional.
In experiment [2] the test system is Plasma. Put plainly: Anticoagulant activity in monkey plasma assessed as concentration causing 1.5 times prolongation of prothrombin time. Type of experiment: functional, Macaca mulatta.
For experiment [3], the system named is Plasma. As to the kind of experiment: Anticoagulant activity in human plasma assessed as concentration causing 1.5 times prolongation of prothrombin time. Format: functional.
Experiment [4] has as its target Coagulation factor X (Homo sapiens) (UniProt P00742). Put plainly: Binding affinity to F10a.
Experiment [5] concerns Plasma. As to the kind of experiment: Anticoagulant activity in dog plasma assessed as concentration causing 1.5 times prolongation of prothrombin time. Format: functional, Canis lupus familiaris.

Chain of Coagulation factor X (Homo sapiens) (P00742 41-179 limits assumed): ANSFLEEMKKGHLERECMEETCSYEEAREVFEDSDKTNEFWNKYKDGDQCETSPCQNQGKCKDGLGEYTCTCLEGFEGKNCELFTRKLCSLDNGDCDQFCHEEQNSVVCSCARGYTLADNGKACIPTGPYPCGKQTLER
Chain of Coagulation factor X (Homo sapiens) (P00742 235-488 limits assumed): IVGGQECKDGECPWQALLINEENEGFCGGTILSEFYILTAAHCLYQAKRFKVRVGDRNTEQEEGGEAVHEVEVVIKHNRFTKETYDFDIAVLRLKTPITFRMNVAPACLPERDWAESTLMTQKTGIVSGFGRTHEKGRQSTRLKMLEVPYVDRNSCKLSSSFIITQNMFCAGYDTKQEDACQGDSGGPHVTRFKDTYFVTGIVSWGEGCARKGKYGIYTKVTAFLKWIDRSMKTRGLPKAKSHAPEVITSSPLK

For the compound `CC(C)N1CCC(COC[C@H](NC(=O)c2ccc3c(Cl)c[nH]c3c2)c2ccccc2)CC1`, the Activity in experiment [1] was 0.6 µM; in experiment [2], 0.4 µM; in experiment [3], 0.4 µM; in experiment [5], 0.8 µM. Moreover, in experiment [4], the Kapp was 1700 10^6L/mol.
`CC(C)N1CCC(CCCC(NC(=O)c2ccc3c(Cl)c[nH]c3c2)c2ccccc2)CC1` (stereo not drawn): in experiment [4], the Kapp was 700 10^6L/mol.
Take `Cc1c[nH]c2cc(C(=O)N[C@@H](COCC3CCN(C(C)C)CC3)c3ccccc3)ccc12`: the Kapp in experiment [4] was 160 10^6L/mol.
Turning to `CN1CCC(COCC(NC(=O)c2ccc3c(Cl)c[nH]c3c2)c2ccccc2Cl)CC1` (stereo not drawn), the Kapp in experiment [4] was 65 10^6L/mol.
Consider `CCCC[C@H](COCC1CCN(C(C)C)CC1)NC(=O)c1ccc2c(Cl)c[nH]c2c1`, for which the Kapp in experiment [4] is 41 10^6L/mol.
Still for that read-out and setting: under `CC(C)N1CCC(CN(C)C[C@H](NC(=O)c2ccc3c(Cl)c[nH]c3c2)c2ccccc2)CC1` stands 60 10^6L/mol; under `CC(C)N1CCC(CNC[C@H](NC(=O)c2ccc3c(Cl)c[nH]c3c2)c2ccccc2)CC1`, 1200 10^6L/mol.
For the compound `CC(C)N1CCC(CNC(=O)[C@H](NC(=O)c2ccc3c(Cl)c[nH]c3c2)c2ccccc2)CC1`, the Activity in experiment [1] stood at 2.6 µM; in experiment [2], 0.6 µM; in experiment [3], 0.5 µM; in experiment [5], 3.2 µM. For the same compound, the Kapp in experiment [4] is 460 10^6L/mol.
Regarding `CC(C)[C@H](COCC1CCN(C(C)C)CC1)NC(=O)c1ccc2c(Cl)c[nH]c2c1`, the Kapp in experiment [4] is 14 10^6L/mol.
On the same count and under the same terms, as for `CC(C)N1CCC(COCC(NC(=O)c2ccc3c(Cl)c[nH]c3c2)c2ccccc2F)CC1` (stereo not drawn), the figure is 650 10^6L/mol; as for `CC(C)N1CCC(COCC(NC(=O)c2ccc3c(Cl)c[nH]c3c2)c2ccccc2Cl)CC1` (stereo not drawn), 850 10^6L/mol.
Turning to `CC(C)N1CCC(COC[C@H](NC(=O)c2ccc3cc[nH]c3c2)c2ccccc2)CC1`, in experiment [4], the Kapp is 35 10^6L/mol.
As for `COc1ccc(C(=O)N[C@@H](COCC2CCN(C(C)C)CC2)c2ccccc2)cc1`, in experiment [4], the Kapp was 3 10^6L/mol.
In the case of `O=C(NC(COCC1CCN(c2ccncc2)CC1)c1ccccc1Cl)c1ccc2c(Cl)c[nH]c2c1` (stereo not drawn), in experiment [4], the Kapp is 1300 10^6L/mol.
For `CCN1CCC(COCC(NC(=O)c2ccc3c(Cl)c[nH]c3c2)c2ccccc2Cl)CC1` (stereo not drawn), in experiment [4], the Kapp is 150 10^6L/mol.

The values are drawn from ChEMBL document CHEMBL1140505, “D-phenylglycinol-derived non-covalent factor Xa inhibitors: effect of non-peptidic S4 linkage elements on affinity and anticoagulant activity” (2007).
